In patent US20100035251A1, “BioMarkers for the Progression of Alzheimer's Disease” (priority 2006, published 2010) one finds IC50 data, which are given here for one molecule.

The test addresses LRRK2 protein (SEQ ID NO:2) (Homo sapiens, UniProt Q5S007). In words: Drug Pull-Down experiments. The test is classed as binding. Here is the method: The pharmacological properties of the LRRK2 modulating agents can be evaluated, for example, in Drug Pull-Down experiments. The above-mentioned heterocyclic compounds can show activity in Drug Pull-Down experiments at concentrations below 20 μM.

LRRK2 protein (SEQ ID NO:2), sequence (Q5S007 whole entry R50H/L212S): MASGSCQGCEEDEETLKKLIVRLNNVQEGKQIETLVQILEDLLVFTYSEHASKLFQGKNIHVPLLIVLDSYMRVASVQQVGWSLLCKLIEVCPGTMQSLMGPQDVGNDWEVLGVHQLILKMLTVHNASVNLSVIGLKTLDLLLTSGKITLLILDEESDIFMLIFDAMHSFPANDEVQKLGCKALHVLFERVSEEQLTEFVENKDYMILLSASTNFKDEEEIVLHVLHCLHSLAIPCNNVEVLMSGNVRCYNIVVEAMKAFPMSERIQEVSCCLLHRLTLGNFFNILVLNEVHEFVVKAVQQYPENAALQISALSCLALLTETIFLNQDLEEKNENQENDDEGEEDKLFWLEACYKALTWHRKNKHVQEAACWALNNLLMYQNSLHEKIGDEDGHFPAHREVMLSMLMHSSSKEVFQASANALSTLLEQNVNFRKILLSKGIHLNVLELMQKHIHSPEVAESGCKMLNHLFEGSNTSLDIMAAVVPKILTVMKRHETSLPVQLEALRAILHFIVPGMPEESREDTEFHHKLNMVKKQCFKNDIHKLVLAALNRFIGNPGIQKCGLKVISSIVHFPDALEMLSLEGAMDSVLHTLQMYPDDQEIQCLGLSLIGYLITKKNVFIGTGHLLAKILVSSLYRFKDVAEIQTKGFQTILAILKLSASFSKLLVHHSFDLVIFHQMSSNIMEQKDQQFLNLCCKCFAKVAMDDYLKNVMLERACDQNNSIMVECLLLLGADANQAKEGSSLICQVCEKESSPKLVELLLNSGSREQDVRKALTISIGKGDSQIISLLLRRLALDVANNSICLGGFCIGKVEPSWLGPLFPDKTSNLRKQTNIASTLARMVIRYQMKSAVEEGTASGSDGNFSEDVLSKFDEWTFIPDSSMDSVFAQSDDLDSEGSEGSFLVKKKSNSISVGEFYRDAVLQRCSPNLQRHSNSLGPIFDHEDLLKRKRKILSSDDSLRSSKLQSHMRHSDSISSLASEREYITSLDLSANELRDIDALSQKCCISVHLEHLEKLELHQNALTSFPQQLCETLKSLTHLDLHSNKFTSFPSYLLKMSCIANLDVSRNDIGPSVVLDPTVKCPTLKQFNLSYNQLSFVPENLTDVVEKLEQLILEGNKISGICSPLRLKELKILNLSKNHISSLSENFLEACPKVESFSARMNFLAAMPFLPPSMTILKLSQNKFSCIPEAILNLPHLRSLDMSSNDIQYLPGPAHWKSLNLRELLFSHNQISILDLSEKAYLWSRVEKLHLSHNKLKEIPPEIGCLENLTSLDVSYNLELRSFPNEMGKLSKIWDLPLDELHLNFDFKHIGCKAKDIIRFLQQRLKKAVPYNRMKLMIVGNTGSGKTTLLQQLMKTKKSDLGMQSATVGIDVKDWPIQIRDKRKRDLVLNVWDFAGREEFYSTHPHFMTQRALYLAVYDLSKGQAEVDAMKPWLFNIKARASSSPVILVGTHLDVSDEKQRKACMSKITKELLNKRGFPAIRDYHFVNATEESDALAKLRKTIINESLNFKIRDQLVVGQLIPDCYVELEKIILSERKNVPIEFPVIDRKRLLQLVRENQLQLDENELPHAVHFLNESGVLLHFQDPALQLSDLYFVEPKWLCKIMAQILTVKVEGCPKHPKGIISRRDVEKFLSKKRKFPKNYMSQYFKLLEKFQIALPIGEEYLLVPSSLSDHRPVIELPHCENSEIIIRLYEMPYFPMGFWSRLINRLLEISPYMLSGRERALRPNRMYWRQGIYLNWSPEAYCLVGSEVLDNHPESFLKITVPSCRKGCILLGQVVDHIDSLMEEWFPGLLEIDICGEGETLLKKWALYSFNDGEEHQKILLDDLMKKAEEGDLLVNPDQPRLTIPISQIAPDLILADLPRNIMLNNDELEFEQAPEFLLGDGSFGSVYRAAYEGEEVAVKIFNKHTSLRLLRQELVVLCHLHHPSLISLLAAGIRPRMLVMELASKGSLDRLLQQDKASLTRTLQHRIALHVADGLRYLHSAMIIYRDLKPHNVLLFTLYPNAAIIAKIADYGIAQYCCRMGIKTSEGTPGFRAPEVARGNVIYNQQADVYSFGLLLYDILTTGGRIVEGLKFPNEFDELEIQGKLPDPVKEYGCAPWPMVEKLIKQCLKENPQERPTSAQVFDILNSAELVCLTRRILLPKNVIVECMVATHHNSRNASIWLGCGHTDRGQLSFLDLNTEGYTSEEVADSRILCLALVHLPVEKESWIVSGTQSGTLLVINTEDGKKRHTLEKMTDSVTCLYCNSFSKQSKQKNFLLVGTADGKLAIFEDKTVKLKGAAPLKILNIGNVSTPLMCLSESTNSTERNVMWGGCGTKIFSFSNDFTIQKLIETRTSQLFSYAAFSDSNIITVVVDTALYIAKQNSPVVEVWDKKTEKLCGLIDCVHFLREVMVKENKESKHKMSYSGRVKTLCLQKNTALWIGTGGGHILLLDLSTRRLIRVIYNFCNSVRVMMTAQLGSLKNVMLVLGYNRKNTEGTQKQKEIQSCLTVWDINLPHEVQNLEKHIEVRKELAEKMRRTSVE

What is called IC50 is the concentration at which inhibition is half-maximal. High values mean a need for much substance, low ones inhibition by little substance. Turning to `Cc1[nH]c(/C=C2\C(=O)Nc3ccccc32)c(C)c1CCC(=O)O` [Compound 12], the IC50 is approximately 1 µM.
